Laboratory results from patent US10501498B2 (BGI SHENZHEN, priority 2014, dated 2019).
Entries after “also recorded” stand apart in the source; their conditions may differ.

System: HVA calcium channel
Assay type: cell-based, rat

KCCTMSVCQPPPVCTCCA [κ-CPTx-btl01] was tested, and the current after loading was −459.93 pA, the “inhibition of HVA calcium channel currents compared with Nifedipine (positive control)” value was “inhibitory effect is higher than that of Nifedipine; also recorded: higher inhibition rate on HVA calcium channel currents than Nifedipine” and the inhibition rate (10 µM) was 52.17%.
